Test results reported in ChEMBL document CHEMBL2177100, “Structural optimization and structure-activity relationships of N2-(4-(4-Methylpiperazin-1-yl)phenyl)-N8-phenyl-9H-purine-2,8-diamine derivatives, a new class of reversible kinase inhibitors targeting both EGFR-activating and resistance mutations” (J Med Chem, 2012).
Active and inactive are the calls of the source. No cut-off for these calls is given here.

Experiments:
[1] = Cytotoxicity against human HCC827 cells incubated for 72 hrs by MTT assay; format: functional, cell-based; settings: HCC827, 72 h
NCI-H1975 [2] = experiment: Cytotoxicity against human NCI-H1975 cells incubated for 72 hrs by MTT assay; format: functional, cell-based; settings: NCI-H1975, 72 h
HepG2 = experiment: Cytotoxicity against human HepG2 cells incubated for 72 hrs by MTT assay; format: functional, cell-based; settings: HepG2, 72 h
PC-9 = experiment: Cytotoxicity against human PC9 cells incubated for 72 hrs by MTT assay; format: functional, cell-based; settings: PC-9, 72 h
HCC827 = experiment: Antitumor activity against human HCC827 cells xenografted in BALB/c mouse assessed as reduction tumor volume at 100 mg/kg, po qd; format: functional, organism-based; parameters: dose 100 mg/kg
Mus musculus = experiment: Toxicity in human NCI-H1975 cells xenografted BALB/c mouse assessed as body weight loss at 20 mg/kg, po qd; format: organism-based; parameters: dose 20 mg/kg, route oral; settings: in vivo
NCI-H1975 [3] = experiment: Antitumor activity against human NCI-H1975 cells xenografted in BALB/c mouse assessed as inhibition of tumor growth at 20 mg/kg, po qd; format: functional; settings: read-out: TGI
[4] = biological target: Epidermal growth factor receptor (Homo sapiens, UniProt P00533, L858R); experiment: Inhibition of EGFR L858R mutant; format: protein assay
[5] = biological target: Epidermal growth factor receptor (Homo sapiens, UniProt P00533, L858R/T790M); experiment: Inhibition of EGFR L858R/T790M mutant; format: protein assay
Sequence of Epidermal growth factor receptor (Homo sapiens, UniProt P00533, L858R/T790M) (P00533 25-1210 T790M/L858R limits assumed): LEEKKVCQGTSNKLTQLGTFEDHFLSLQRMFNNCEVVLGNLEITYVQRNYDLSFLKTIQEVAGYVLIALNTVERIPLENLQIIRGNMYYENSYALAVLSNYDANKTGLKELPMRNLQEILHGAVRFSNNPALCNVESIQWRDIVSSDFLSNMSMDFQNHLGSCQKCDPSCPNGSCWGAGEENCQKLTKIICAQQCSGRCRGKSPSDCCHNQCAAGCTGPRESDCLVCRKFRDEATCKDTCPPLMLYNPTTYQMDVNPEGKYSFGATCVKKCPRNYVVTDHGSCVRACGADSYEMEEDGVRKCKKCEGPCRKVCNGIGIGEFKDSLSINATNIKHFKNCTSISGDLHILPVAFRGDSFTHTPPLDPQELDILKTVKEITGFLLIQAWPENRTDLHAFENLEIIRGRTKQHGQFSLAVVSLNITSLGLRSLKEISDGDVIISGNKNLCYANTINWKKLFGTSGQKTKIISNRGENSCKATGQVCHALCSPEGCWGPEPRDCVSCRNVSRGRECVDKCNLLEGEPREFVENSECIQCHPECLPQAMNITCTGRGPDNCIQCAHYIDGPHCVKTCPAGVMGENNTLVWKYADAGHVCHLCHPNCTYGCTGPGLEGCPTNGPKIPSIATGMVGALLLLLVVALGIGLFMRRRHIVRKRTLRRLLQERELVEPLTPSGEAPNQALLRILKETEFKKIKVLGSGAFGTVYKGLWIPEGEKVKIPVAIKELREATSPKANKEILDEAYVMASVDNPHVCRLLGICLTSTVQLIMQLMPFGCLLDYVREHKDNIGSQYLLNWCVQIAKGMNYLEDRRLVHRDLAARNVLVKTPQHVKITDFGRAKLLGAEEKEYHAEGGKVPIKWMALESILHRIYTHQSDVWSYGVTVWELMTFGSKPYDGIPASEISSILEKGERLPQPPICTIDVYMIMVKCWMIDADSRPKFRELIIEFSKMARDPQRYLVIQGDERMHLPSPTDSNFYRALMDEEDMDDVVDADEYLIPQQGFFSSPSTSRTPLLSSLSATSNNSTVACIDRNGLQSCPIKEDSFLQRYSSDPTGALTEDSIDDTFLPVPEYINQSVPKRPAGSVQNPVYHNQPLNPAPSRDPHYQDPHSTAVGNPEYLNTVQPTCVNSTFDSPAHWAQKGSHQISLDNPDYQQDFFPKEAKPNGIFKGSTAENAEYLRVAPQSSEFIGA

Sequence of Epidermal growth factor receptor (Homo sapiens, UniProt P00533, L858R) (P00533 25-1210 L858R limits assumed): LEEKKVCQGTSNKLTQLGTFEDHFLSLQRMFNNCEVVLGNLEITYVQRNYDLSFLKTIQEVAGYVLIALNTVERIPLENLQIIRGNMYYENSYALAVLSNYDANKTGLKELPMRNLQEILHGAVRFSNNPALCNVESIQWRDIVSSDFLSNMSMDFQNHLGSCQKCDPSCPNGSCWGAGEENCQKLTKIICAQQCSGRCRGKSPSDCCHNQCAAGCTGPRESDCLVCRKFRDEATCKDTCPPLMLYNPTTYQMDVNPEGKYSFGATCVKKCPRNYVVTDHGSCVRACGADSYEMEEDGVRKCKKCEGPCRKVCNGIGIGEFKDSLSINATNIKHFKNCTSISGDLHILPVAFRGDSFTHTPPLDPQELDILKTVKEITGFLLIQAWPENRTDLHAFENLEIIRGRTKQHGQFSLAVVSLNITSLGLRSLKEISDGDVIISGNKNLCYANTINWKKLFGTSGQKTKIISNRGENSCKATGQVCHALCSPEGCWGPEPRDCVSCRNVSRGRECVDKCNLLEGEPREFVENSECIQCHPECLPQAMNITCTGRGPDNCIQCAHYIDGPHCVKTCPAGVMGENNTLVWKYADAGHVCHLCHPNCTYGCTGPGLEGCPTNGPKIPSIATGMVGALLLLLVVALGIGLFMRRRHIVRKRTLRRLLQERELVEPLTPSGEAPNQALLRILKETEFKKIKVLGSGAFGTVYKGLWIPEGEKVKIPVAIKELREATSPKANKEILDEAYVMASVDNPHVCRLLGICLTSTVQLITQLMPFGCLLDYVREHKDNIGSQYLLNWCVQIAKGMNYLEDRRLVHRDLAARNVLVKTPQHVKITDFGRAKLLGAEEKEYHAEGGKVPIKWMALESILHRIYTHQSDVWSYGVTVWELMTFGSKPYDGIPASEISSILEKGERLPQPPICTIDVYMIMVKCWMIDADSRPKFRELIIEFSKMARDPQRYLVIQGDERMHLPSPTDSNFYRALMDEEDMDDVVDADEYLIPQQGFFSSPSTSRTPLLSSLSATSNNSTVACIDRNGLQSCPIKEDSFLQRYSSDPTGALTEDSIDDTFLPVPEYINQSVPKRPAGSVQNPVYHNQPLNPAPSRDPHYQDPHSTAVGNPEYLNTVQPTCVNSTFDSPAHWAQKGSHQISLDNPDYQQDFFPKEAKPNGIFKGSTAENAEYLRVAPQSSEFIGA

Structure (SMILES) | IC50 [1] | IC50 (NCI-H1975 [2]) | IC50 (HepG2) | further results
CC1CCN(c2ccc(Nc3ncc4nc(Nc5ccccc5)n(C5CCCC5)c4n3)cc2)CC1 | 32 nM | 9800 nM | > 5000 nM | –
CN1CCN(c2ccc(Nc3ncc4nc(Nc5cccc(O)c5)n(C5CCCC5)c4n3)cc2)CC1 | 0.72 nM | 1020 nM | 4200 nM | –
CN1CCN(c2ccc(Nc3ncc4nc(Nc5cccc(NC(=O)c6ccccc6)c5)n(C5CCCC5)c4n3)cc2)CC1 | 15 nM | 2120 nM | 2600 nM | –
CN1CCN(c2ccc(Nc3ncc4nc(Nc5ccccc5)n(C5CC5)c4n3)cc2)CC1 | 18 nM | 2860 nM | > 5000 nM | –
Cc1cc(C)cc(-n2c(Nc3ccccc3)nc3cnc(Nc4ccc(N5CCN(C)CC5)cc4)nc32)c1 | 1 nM | 1910 nM | > 5000 nM | –
CN1CCN(c2ccc(Nc3ncc4nc(Nc5ccc(Br)cc5)n(C5CCCC5)c4n3)cc2)CC1 | 2.2 nM | 2090 nM | > 5000 nM | –
CN1CCN(c2ccc(Nc3ncc4nc(Nc5cccc([N+](=O)[O-])c5)n(C5CCCC5)c4n3)cc2)CC1 | < 0.01 nM | 980 nM | > 5000 nM | –
CN1CCN(c2ccc(Nc3ncc4nc(Nc5cccc(Cl)c5)n(C5CCCC5)c4n3)cc2)CC1 | < 0.01 nM | 390 nM | 4800 nM | –
COc1cc2ncnc(Nc3ccc(F)c(Cl)c3)c2cc1OCCCN1CCOCC1 [GEFITINIB] | – | – | – | IC50 (PC-9): 14 nM; TGI (HCC827): Active
OCCNc1ccc(Nc2ncc3nc(Nc4ccccc4)n(C4CCCC4)c3n2)cc1 | 2.8 nM | 2810 nM | > 5000 nM | –
CN1CCN(c2ccc(Nc3ncc4nc(Nc5cc(Cl)ccc5Cl)n(C5CCCC5)c4n3)cc2)CC1 | 0.01 nM | 2540 nM | > 5000 nM | –
CN(C)C/C=C/C(=O)Nc1cc2c(Nc3ccc(F)c(Cl)c3)ncnc2cc1O[C@H]1CCOC1 [AFATINIB] | – | – | – | Activity (Mus musculus): 6.6%; inhibition in vivo at 20 mg/kg (NCI-H1975 [3]): 74%
CN1CCN(c2ccc(Nc3ncc4nc(Nc5ccccc5)n(C)c4n3)cc2)CC1 | 24 nM | 6060 nM | > 5000 nM | –
Cc1cccc(Nc2nc3cnc(Nc4ccc(N5CCN(C)CC5)cc4)nc3n2C2CCCC2)c1 | < 0.01 nM | 560 nM | 4700 nM | –
CN1CCN(c2ccc(Nc3ncc4nc(Nc5ccccc5)n(-c5ccccc5)c4n3)cc2)CC1 | 1.7 nM | 1830 nM | > 5000 nM | –
c1ccc(Nc2nc3cnc(Nc4ccc(N5CCOCC5)cc4)nc3n2C2CCCC2)cc1 | 0.66 nM | 9200 nM | > 5000 nM | –
CN1CCN(c2ccc(Nc3ncc4nc(Nc5cccc(C(=O)Nc6ccc(Cl)cc6)c5)n(C5CCCC5)c4n3)cc2)CC1 | 2900 nM | 4010 nM | > 5000 nM | –
CN1CCN(c2ccc(Nc3ncc4nc(Nc5ccccc5)[nH]c4n3)cc2)CC1 | 233 nM | 18100 nM | > 5000 nM | IC50 [4]: 98 nM; IC50 [5]: 978 nM
CN1CCN(c2ccc(Nc3ncc4nc(Nc5ccc(Br)cc5F)n(C5CCCC5)c4n3)cc2)CC1 | 2.3 nM | 1120 nM | > 5000 nM | –
CC(=O)Nc1ccc(Nc2ncc3nc(Nc4ccccc4)n(C4CCCC4)c3n2)cc1 | 0.47 nM | 1210 nM | > 5000 nM | –
CN1CCN(c2ccc(Nc3ncc4nc(Nc5ccccc5)n(C5CCCCC5)c4n3)cc2)CC1 | < 0.01 nM | 390 nM | > 5000 nM | –
C#Cc1cccc(Nc2nc3cnc(Nc4ccc(N5CCN(C)CC5)cc4)nc3n2C2CCCC2)c1 | < 0.01 nM | 650 nM | 4900 nM | –
c1ccc(Nc2ncc3nc(Nc4ccccc4)n(C4CCCC4)c3n2)cc1 | 2.7 nM | > 10000 nM | > 5000 nM | –
CC(C)n1c(Nc2ccccc2)nc2cnc(Nc3ccc(N4CCN(C)CC4)cc3)nc21 | 0.1 nM | 960 nM | > 5000 nM | –
